Experimental data taken from EP0269230A1, “Heterocyclic compounds” (priority 1986, dated 1988).
Converted amounts (≈) assume the structure as drawn.

Key:
[1] = tested on: Musca domestica (WRL strain); assay: Topical application to unanaesthetised female Musca domestica; assay type: in vivo; conditions: topical application in cellosolve; mortality assessed after 10 mins, 1 hr, 24 hrs and 48 hrs
Protocol: Mortality was assessed after 10 mins, 1 hr, 24 hrs and 48 hrs.

Myzus persicae = assay: Lethal activity against insects, spray test on adult Myzus on chinese cabbage leaf disc; assay type: in vivo; conditions: 10 adult Myzus on leaf disc sprayed, mortality after 2 days at 25°C
Protocol: (§1) The activity of the compounds of the invention was tested by dissolving the compounds in acetone (5%) and then diluting in water: "Symperonic" (94.5%:0.5%) to give a water emulsion. The solution was then used to treat the following insects: Musca domestica, Plutella xylostella, Myzus persicae and Tetranychus urticae.
10 adult Myzus were placed on a leaf disc of chinese cabbage. 24 hours later the disc was sprayed with the solution containing the compound. Mortality was assessed after 2 days at 25°C.

Musca domestica = assay: Lethal activity against insects, spray test on female Musca domestica; assay type: in vivo; conditions: sprayed onto 20 female Musca domestica, mortality after 48 hrs at 25°C
Protocol: as §1
20 Female Musca domestica were contained in a cardboard cyclinder with gauze over either end. A solution containing the compounds was sprayed onto the insects so enclosed and mortality assessed after 48 hrs at 25°C.

[2] = tested on: Coriolusversicolor, Coniophora putena, Aureobasidium pullulans and Chaetomium globosum; assay: Antifungal testing, primary soft agar screen, inhibition of hyphae growth; assay type: cell-based; conditions: fungus not specified per compound; for IC50: read-out: IC₅₀
Protocol: The antifungal activity of compounds of the invention was determined using a primary soft agar screen. The concentration dependent inhibition of hyphae growth was determined for Coriolusversicolor, Coniophora putena, Aureobasidium pullulans and Chaetomium globosum.

[3] = Mammalian toxicity, oral, mice; assay type: in vivo; conditions: given orally to mice (Charles River CD1)
Protocol: 1-(2E)-6-Methoxyimino-3-methylhex-2-enyl-2-methylbenzimidazole and 1-geranyl-2,6,7-trimethylbenzimidazole have an LD₅₀ value of approximately 200 mg when given orally to mice (Charles River CD1).

Plutella xylostella = assay: Lethal activity against insects, spray test on Plutella larvae on chinese cabbage leaf; assay type: in vivo; conditions: 7 Plutella larvae and leaf sprayed, mortality after 2 days at 25°C
Protocol: as §1
7 Plutella larvae were sprayed with the solution containing the compound and added to a chinese cabbage leaf which had been similarly sprayed and left to dry. Mortality was assessed after 2-days at 25°C.

Tetranychus urticae = assay: Lethal activity, spray test on infested french bean leaf discs; assay type: in vivo; conditions: infested leaf discs sprayed, mortality after 2 days at 25°C
Protocol: as §1
Leaf discs of infested french bean were sprayed with the solution containing the compound. Mortality was assessed after 2 days at 25°C.

Molecule | LD₅₀ [1] | IC50 [2] | also measured
1-Geranyl-2-methyl-5(6)-nitrobenzimidazole | < 10 µg/fly |  | active on Myzus persicae at 1000 ppm (Myzus persicae): active
1-Geranyl-5(6)-methoxy-2-methylbenzimidazole | < 10 µg/fly |  | active at 1000 ppm (Musca domestica): active; IC₅₀ [2]: 30 ppm; active on Myzus persicae at 1000 ppm (Myzus persicae): active
5(6)-Chloro-geranyl-2-methylbenzimidazole |  |  | IC₅₀ [2]: 30 ppm
5(6)-Ethoxy-1-geranyl-2-methyl-benzimidazole |  |  | IC₅₀ [2]: 30 ppm
CC(=CCn1c(C)nc2ccccc21)CCOC(C)C (mixture of isomers) [(E/Z)-1-(5-isopropoxy-3-methylpent-2-enyl)-2-methylbenzimidazole] | < 10 µg/fly |  | 
C/C(=C\Cn1c(C)nc2ccccc21)CCC=C(Cl)Cl [1-, (2E)-7,7-Dichloro-3-methylhepta-2,6-dienyl,-2-methylbenzimidazole] |  | 30 µg/mL (≈ 97 µM) | 
CC(C)=CCC/C(C)=C/Cn1c(C)nc2c(C)cccc21 [1-Geranyl-2,4-dimethylbenzimidazole, 2,4-Dimethyl-1-geranylbenzimidazole] | < 10 µg/fly | 30 µg/mL (≈ 106 µM) | active at 200 ppm (Musca domestica): active; active at 200 ppm (Myzus persicae): active
CC(C)=CCC/C(C)=C/Cn1c(C)nc2cc(C)c(C)cc21 [1-Geranyl-2,5,6-trimethylbenzimidazole] |  | 30 µg/mL (≈ 101 µM) | 
CC(C)=CCC/C(C)=C/Cn1c(C)nc2ccc(C)c(C)c21 [1-Geranyl-2,6,7-trimethylbenzimidazole] | < 10 µg/fly | 30 µg/mL (≈ 101 µM) | LD₅₀ [3]: approximately 200 mg; active at 1000 ppm (Musca domestica): active; active on Myzus persicae at 1000 ppm (Myzus persicae): active
CC(C)=CCC/C(C)=C/Cn1c(C)nc2c([N+](=O)[O-])cccc21 [1-Geranyl-2-methyl-4-nitrobenzimidazole] | < 10 µg/fly | 30 µg/mL (≈ 95.7 µM) | active at 1000 ppm (Musca domestica): active; active at 200 ppm (Myzus persicae): active
C=CCCC(C)=CCn1c(C)nc2ccccc21 [1-[3-Methylhepta-2,6-dienyl]-2-methylbenzimidazole] |  | 30 µg/mL (≈ 125 µM) | 
CON=CCC/C(C)=C/Cn1c(C)nc2ccccc21 [1-[(2E)-6-Methoxyimino-3-methylhex-2-enyl]-2-methybenzimidazole] | < 10 µg/fly |  | LD₅₀ [3]: approximately 200 mg
C=CCCC=CCn1c(C)nc2ccccc21 [1-[Hepta-2,6-dienyl]-2-methylbenzimidazole] |  | 30 µg/mL (≈ 133 µM) | 
CC(C)=CCC/C(C)=C/Cn1c(Cl)nc2ccccc21 [2-Chloro-1-geranylbenzimidazole] | < 10 µg/fly |  | active at 1000 ppm (Musca domestica): active; active on Myzus persicae at 1000 ppm (Myzus persicae): active
C/C(=C\Cn1c(C)nc2ccccc21)CCC=NOCc1ccccc1 [2-Methyl-1-[(2E)-3-methyl-6-benzyloxyiminohex-2-enyl]benzimidazole] |  | 30 µg/mL (≈ 86.3 µM) | 
CC(C)=CCC/C(C)=C/Cn1c(C)nc2c(Cl)cc(Cl)cc21 [4(7),6(5)-Dichloro-1-geranyl-2-methylbenzimidazole] |  |  | IC₅₀ [2]: 30 ppm
CC(C)=CCC/C(C)=C/Cn1c(C)nc2c(N)cccc21 [4-Amino-1-geranyl-2-methylbenzimidazole] | < 10 µg/fly | 30 µg/mL (≈ 106 µM) | active at 1000 ppm (Musca domestica): active
COC(C)(C)CCC/C(C)=C/Cn1c(C)nc2c(C)c(C)ccc21 [(2E)-1-(7-Methoxy-3,7-dimethyloct-2-enyl)-2,4,5-trimethylbenzimidazole] | < 10 µg/fly |  | active at 200 ppm (Musca domestica): active; active at 1000 ppm (Plutella xylostella): active; active at 200 ppm (Myzus persicae): active
COC(C)(C)CCC/C(C)=C/Cn1c(C)nc2c(C)cccc21 [(2E)-1-(7-Methoxy-3,7-dimethyloct-2-enyl)-2,4-dimethylbenzimidazole] | < 10 µg/fly | 30 µg/mL (≈ 95.4 µM) | active at 200 ppm (Musca domestica): active; active against Tetranychus urticae at 200 ppm (Tetranychus urticae): active; active at 200 ppm (Myzus persicae): active
COC(C)(C)CCC/C(C)=C/Cn1c(C)nc2ccc(C)c(C)c21 [(2E)-1-(7-Methoxy-3,7-dimethyloct-2-enyl)-2,6,7-trimethylbenzimidazole] |  | 30 µg/mL (≈ 91.3 µM) | 
CC=CCC/C(C)=C/Cn1c(C)nc2ccccc21 [(2E)-2-Methyl-1-(3-methlocta-2,6-dienyl)benzimidazole] | < 10 µg/fly | 30 µg/mL (≈ 118 µM) | 
CC(C)=CCC/C(C)=C/CC/C(C)=C/Cn1c(C)nc2c(C)cccc21 [(2E,6E)-2,4-dimethyl-1-(3,7,11)-(trimethyldodeca-2,6,10-trienyl)benzimidazole] |  | 30 µg/mL (≈ 85.6 µM) | 
COc1ccc2c(c1)nc(C)n2C/C=C(\C)CC/C=C(\C)CCC=C(C)C [(2E,6E)-5-Methoxy-2-methyl-1-(3,7,11-trimethyldodeca-2,6,10-trienyl)benzimidazole] |  | 30 µg/mL (≈ 81.8 µM) | 
C/C(=C\Cn1c(C)nc2ccccc21)CCCC(C)(C)OC(=O)Nc1ccccc1 [(5E)-7-(2-Methylbenzimidazole-1-yl)-1,1,5-trimethylhept-5-enyl-N-phenyl-carbamate] | < 10 µg/fly | 30 µg/mL (≈ 74 µM) | 
COC(=O)c1cccc2nc(C)n(C/C=C(\C)CCC=C(C)C)c12 [Methyl 1-geranyl-2-methyl-benzimidazole-7-carboxylate] |  | 30 µg/mL (≈ 91.9 µM) | 
